The results in this text go back to US9034866B2 (Genentech, Inc., priority 2012, dated 2015).

Where two headings read alike, the source gives them in different places. Bounds are passed on as bounds.

Assay [1] concerns the target nuclear factor-kappa B (NF-kB)-inducing kinase (NIK) (Homo sapiens (Human), UniProt Q99558). The assay is described as follows: NIK Enzyme Inhibition Assay (Transcreener ADP fluorescence polarization). Format: biochemical. The following applies: read-out: NIK ADP-FP (Ki uM). The essentials:
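Fluorescence-polarization ADP detection (tracer displacement, 633 nm excitation) read after EDTA/Brij quench. Reaction: 0.2-1 nM insect-cell-derived NIK, 10 uM ATP, HEPES pH 7.2 with MgCl2 and DTT, 1% DMSO, 1-3.5 h with compounds.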
A general note: Polarisation of emitted light reports the rotation of a fluorescent probe.

The subject of assay [2] is REL-A (p65) nuclear translocation in HeLa cells. The assay is described as follows: REL-A nuclear translocation assay (classical NF-kB signaling), high content imaging. The class given is cell-based. The note with it: Homo sapiens, HeLa, compounds 4.5 hours, then 10 ng/mL TNF-α for 30 minutes, read-out: REL-A HeLa Transloc Assay (IC50). An outline of the steps:
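HeLa cells in 10% FBS medium preincubated with compounds (0.2% DMSO final) for 4.5 hours, then stimulated with 10 ng/mL TNF-α for 30 minutes. Fixed cells stained with 400 ng/mL anti-REL-A antibody, Alexa488 secondary and DRAQ5; translocation quantified by imaging as nuclear to cytoplasmic signal ratio.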

Assay [3] deals with p52 (NF-kB2) nuclear translocation in HeLa cells. The assay is described as follows: p52 nuclear translocation assay (non-classical NF-kB signaling), high content imaging. Format: cell-based. The following applies: Homo sapiens, HeLa, 5 h, 100 ng/mL anti-lymphotoxin beta receptor antibody for 5 hours, read-out: p52 HeLa Transloc Assay (IC50). An outline of the steps:
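HeLa cells in 10% FBS medium were treated with compound (0.2% DMSO final), then stimulated 5 h with 100 ng/mL anti-lymphotoxin beta receptor antibody. After fixation, cells were immunostained for p52 (2 ug/mL antibody) with DRAQ5 nuclear stain and imaged by high-content imaging. IC50 in µM was derived from the nuclear/cytoplasmic signal ratio.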

Setting [4] is: purified NIK 0.2-1 nM, 10 uM ATP, Morrison's quadratic equation.

nuclear factor-kappa B (NF-kB)-inducing kinase (NIK), sequence (Q99558 whole entry): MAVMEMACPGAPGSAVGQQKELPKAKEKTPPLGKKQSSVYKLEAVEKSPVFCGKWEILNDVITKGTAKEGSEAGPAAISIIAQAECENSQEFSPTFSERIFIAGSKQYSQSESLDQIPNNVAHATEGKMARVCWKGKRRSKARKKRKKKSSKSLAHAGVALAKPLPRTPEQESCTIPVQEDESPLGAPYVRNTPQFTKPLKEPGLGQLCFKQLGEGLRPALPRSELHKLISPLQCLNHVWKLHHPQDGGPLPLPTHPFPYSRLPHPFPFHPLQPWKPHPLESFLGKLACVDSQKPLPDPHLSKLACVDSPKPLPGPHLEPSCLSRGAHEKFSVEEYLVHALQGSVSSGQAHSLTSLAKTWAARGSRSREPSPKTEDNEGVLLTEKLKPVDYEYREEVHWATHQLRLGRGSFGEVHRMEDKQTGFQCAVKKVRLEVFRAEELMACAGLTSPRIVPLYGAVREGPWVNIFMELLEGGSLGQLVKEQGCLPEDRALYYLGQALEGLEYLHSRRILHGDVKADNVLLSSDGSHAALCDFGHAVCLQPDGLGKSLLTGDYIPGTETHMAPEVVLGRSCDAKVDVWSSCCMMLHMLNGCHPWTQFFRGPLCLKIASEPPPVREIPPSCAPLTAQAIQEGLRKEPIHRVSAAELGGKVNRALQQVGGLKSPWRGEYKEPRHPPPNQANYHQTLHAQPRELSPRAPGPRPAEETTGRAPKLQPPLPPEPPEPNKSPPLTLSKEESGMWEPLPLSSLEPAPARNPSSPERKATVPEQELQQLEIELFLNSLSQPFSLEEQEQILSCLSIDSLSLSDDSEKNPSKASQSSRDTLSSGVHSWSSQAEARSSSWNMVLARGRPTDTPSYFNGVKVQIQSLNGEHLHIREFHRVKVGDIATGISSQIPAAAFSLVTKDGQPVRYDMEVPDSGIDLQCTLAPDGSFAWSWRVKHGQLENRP

In general, Ki refers to a dissociation constant, usually derived from enzyme kinetics or from competition with a known ligand. For orientation: IC50 means the concentration that inhibits the measured activity by half. With `Cc1nc([C@](C)(O)C#Cc2cc3c(cc2F)OCCc2sc(C(N)=O)nc2-3)no1`, the Ki in assay [1] (setting [4]) turned out to be 0.001 µM. Further, the IC50 in assay [2] turned out to be 20000 nM; in assay [3] it was 171 nM.
Consider `CNC(=O)c1c(C(N)=O)nc2n1CCOc1ccc(C#CC(C)(O)c3ccccn3)cc1-2` (stereo not shown), for which the Ki in assay [1] (setting [4]) is 0.0043 µM. The IC50 in assay [2] was above 20000 nM; in assay [3], 1400 nM.
In the same order, the values of `CC(C)(O)C#Cc1cc2c(cc1F)C1CC(C1)n1c-2nc(C(N)=O)c1C(F)(F)F` are 0.0095 µM, above 20000 nM and 2600 nM.
With `Cc1cc([C@](C)(O)C#Cc2ccc3c(c2)-c2nc(C(N)=O)c(C(F)(F)F)n2C2CC3C2)no1`, the inhibition constant (Ki) in assay [1] is 0.0005 µM. Also, the half-inhibitory concentration (IC50) in assay [2] is 15100 nM; in assay [3], 511 nM.
`CNC(=O)c1c(C(N)=O)nc2n1C1CC(C1)c1ccc(C#C[C@@](C)(O)c3noc(C)n3)cc1-2`: in assay [1] (setting [4]), the Ki was found to be 0.0021 µM. Moreover, the half-inhibitory concentration (IC50) in assay [2] was 17500 nM; in assay [3], 3800 nM.
For the molecule `CN1CCC(O)(C#Cc2cc3c(cc2F)OCCc2sc(C(N)=O)nc2-3)C1=O` (stereo not shown), in assay [1] (setting [4]), the Ki was 0.00053 µM. In addition, the IC50 in assay [2] is above 20000 nM; in assay [3] it was 450 nM.
In the same order, the values of `CC(C)(O)C#Cc1cc2c(cc1F)C1CC(C1)n1c-2nc(C(N)=O)c1-c1nc(C2CC2)n[nH]1` are 0.0013 µM, above 20000 nM and 3600 nM.
For `Cc1cc([C@](C)(O)C#Cc2ccc3c(c2)-c2nc(C(N)=O)c(-c4cnn(CC(C)(C)O)c4)n2C2CC3C2)no1` the same measures were 0.00059 µM, above 20000 nM and 934 nM.
For `Cc1cc([C@](C)(O)C#Cc2cc3c(cc2F)C2CC(C2)c2[nH]c(C(N)=O)nc2-3)no1` the same measures were 0.0002 µM, above 20000 nM and 477 nM.
Regarding `C[C@@](O)(C#Cc1cc2c(cc1F)C1CC(C1)c1[nH]c(C(N)=O)nc1-2)c1ncccn1`, in assay [1] (setting [4]), the inhibition constant Ki amounted to 0.0026 µM. Further, the 50% inhibitory concentration (IC50) in assay [2] is above 20000 nM; in assay [3], 1700 nM.
Consider `Cc1nc([C@](C)(O)C#Cc2cc3c(cc2F)C2CC(C2)n2c-3nc(C(N)=O)c2C)no1`, for which the Ki in assay [1] (setting [4]) is 0.0007 µM. Besides, the figures for the half-maximal inhibitory concentration (IC50) in assay [2] and in assay [3] were above 20000 nM and 1100 nM, respectively.
As for `CNC(=O)c1c(C(N)=O)nc2n1C1CC(C1)c1cc(F)c(C#CC3(O)CCCC3)cc1-2`, the inhibition constant Ki in assay [1] (setting [4]) was 0.00012 µM. In addition, the values for the IC50 in assay [2] and in assay [3] were above 20000 nM and 375 nM, respectively.
In the same order, the values of `Cc1cc([C@](C)(O)C#Cc2cc3c(cc2F)C2CC(C2)n2c-3nc(C(N)=O)c2C)no1` are 0.0013 µM, above 20000 nM and 385 nM.
In the same order, the values of `C[C@@](O)(C#Cc1cc2c(cc1F)OCCn1c-2nc(C(N)=O)c1-c1nc(C2CC2)n[nH]1)c1ncccn1` are 0.0047 µM, above 20000 nM and 1600 nM.
For `C[C@@](O)(C#Cc1ccc2c(c1)-c1nc(C(N)=O)c(-c3nc(C4CC4)n[nH]3)n1CCO2)c1ncccn1` the same measures were 0.0072 µM, above 20000 nM and 2100 nM.
For the molecule `Cc1nc([C@](C)(O)C#Cc2cc3c(cc2F)C2CC(C2)c2c-3nc(C(N)=O)n2C)no1`, the inhibitory constant (Ki) in assay [1] (setting [4]) was determined as 0.0005 µM. In addition, the 50% inhibitory concentration (IC50) in assay [2] is above 20000 nM; in assay [3], 835 nM.
In the same order, the values of `Cn1c(C(N)=O)nc2c1C1CC(C1)c1cc(F)c(C#CC(C)(C)O)cc1-2` are 0.0078 µM, above 20000 nM and 286 nM.
Consider `CNC(=O)c1c(C(N)=O)nc2n1C1CC(C1)c1ccc(C#C[C@@](C)(O)c3ccccn3)cc1-2`, for which the inhibitory constant (Ki) in assay [1] (setting [4]) was 0.0021 µM. Besides, the concentration for half-maximal inhibition (IC50) was above 20000 nM in assay [2] and 830 nM in assay [3].
For `Cc1cc([C@](C)(O)C#Cc2cc3c(cc2F)C2CC(C2)n2cc(C(N)=O)nc2-3)on1` the same measures were 0.0024 µM, above 20000 nM and 675 nM.
For `Cc1cc(-c2c(C(N)=O)nc3n2CCOc2cc(F)c(C#C[C@@](C)(O)c4noc(C)n4)cc2-3)[nH]n1` the same measures were 0.0087 µM, above 20000 nM and 2500 nM.
Regarding `CN1CC[C@@](O)(C#Cc2ccc3c(c2)-c2nc(C(N)=O)cn2C2CC3C2)C1=O`, the inhibitory constant (Ki) in assay [1] came to 0.0012 µM. Besides, the IC50 came out at 20000 nM in assay [2] and 1500 nM in assay [3].
Turning to `CNC(=O)c1c(C(N)=O)nc2n1CCOc1ccc(C#CC3(O)CCC3)cc1-2`, the Ki in assay [1] (setting [4]) is 0.0022 µM. Also, the results for the half-inhibitory concentration (IC50) in assay [2] and in assay [3] were above 20000 nM and 727 nM, respectively.
In the same order, the values of `Cc1cc([C@](C)(O)C#Cc2ccc3c(c2)-c2nc(C(N)=O)c(Cc4ccnn4C)n2C2CC3C2)no1` are 0.0002 µM, above 20000 nM and 1700 nM.
For the molecule `Cc1nc2ccccc2n1Cc1c(C(N)=O)nc2n1C1CC(C1)c1ccc(C#C[C@]3(O)CCN(C)C3=O)cc1-2`, the Ki in assay [1] (setting [4]) amounted to 0.00087 µM. Further, the IC50 was above 20000 nM in assay [2] and 2900 nM in assay [3].
Take `CN1CC[C@@](O)(C#Cc2ccc3c(c2)-c2nc(C(N)=O)c(C(F)(F)F)n2CCO3)C1=O`: in assay [1] (setting [4]), the Ki is 0.00072 µM. Also, the IC50 in assay [2] is above 20000 nM; in assay [3], 442 nM.
Turning to `CC(C)NC(=O)c1c(C(N)=O)nc2n1CCOc1ccc(C#C[C@]3(O)CCN(C)C3=O)cc1-2`, in assay [1] (setting [4]), the inhibitory constant (Ki) came out at 0.0012 µM. In addition, the IC50 in assay [2] is above 20000 nM; in assay [3] it was 316 nM.
For `CC(C)(O)C#Cc1cc2c(cc1F)OCCn1c-2nc(C(N)=O)c1C(=O)NCC#N` the same measures were 0.0004 µM, 20000 nM and 77 nM.
For `CC(O)(C#Cc1cc2c(cc1F)OCCc1sc(C(N)=O)nc1-2)CO` (stereo not shown) the same measures were 0.003 µM, 20000 nM and 1100 nM.
In the same order, the values of `Cn1nccc1C(O)c1c(C(N)=O)nc2n1CCOc1cc(F)c(C#CC(C)(C)O)cc1-2` (racemic) are 0.0015 µM, above 20000 nM and 2400 nM.
In the case of `NC(=O)c1cn2c(n1)-c1cc(C#CC3(O)CCc4cccnc43)c(F)cc1OCC2` (racemic), the Ki in assay [1] (setting [4]) is 0.0009 µM. In addition, the IC50 is above 20000 nM in assay [2] and 1500 nM in assay [3].
For `CC(C)(O)C#Cc1ccc2c(c1)-c1nc(C(N)=O)c(-c3nc(C4CC4)n[nH]3)n1CCO2` (racemic) the same measures were 0.0024 µM, above 20000 nM and 594 nM.
In the same order, the values of `NC(=O)c1cn2c(n1)-c1cc(C#CC3(O)CCNC3=O)c(F)cc1OCC2` (racemic) are 0.0032 µM, above 20000 nM and 16000 nM.
`CC(C)(O)C#Cc1cc2c(cc1F)C1CC(C1)n1c-2nc(C(N)=O)c1C1CN(C(=O)OC(C)(C)C)C1` (racemic): the inhibitory constant (Ki) in assay [1] (setting [4]) was found to be 0.0077 µM. Moreover, the values for the 50% inhibitory concentration (IC50) in assay [2] and in assay [3] were above 20000 nM and 1800 nM, respectively.
For `Cc1cc([C@](C)(O)C#Cc2ccc3c(c2)-c2nc(C(N)=O)c(C(F)(F)F)n2CCO3)no1` (racemic) the same measures were 0.0049 µM, above 20000 nM and 4500 nM.
For `Cc1nc([C@](C)(O)C#Cc2cc3c(cc2F)C2CC(C2)n2c-3nc(C(N)=O)c2C(F)(F)F)no1` (racemic) the same measures were 0.0072 µM, above 20000 nM and 2300 nM.
Regarding `CNC(=O)c1c(C(N)=O)nc2n1C1CC(C1)c1ccc(C#C[C@@](C)(O)c3cc(C)on3)cc1-2` (racemic), the inhibition constant (Ki) in assay [1] (setting [4]) was 0.00061 µM. In addition, the IC50 in assay [2] was 1800 nM; in assay [3] it was 1300 nM.
For the molecule `Cc1cc([C@](C)(O)C#Cc2ccc3c(c2)-c2nc(C(N)=O)c(C(=O)NC4CCOCC4)n2C2CC3C2)no1` (racemic), in assay [1] (setting [4]), the inhibition constant Ki was determined as 0.0011 µM. Further, the IC50 in assay [2] was 20000 nM; in assay [3], 284 nM.
For `Cc1cc([C@](C)(O)C#Cc2ccc3c(c2)-c2nc(C(N)=O)c(CC4(C)COC4)n2C2CC3C2)no1` (racemic) the same measures were 0.0012 µM, above 20000 nM and 740 nM.
`Cc1cc([C@](C)(O)C#Cc2cc3c(cc2F)OCCn2c-3nc(C(N)=O)c2-c2cnn(CC(C)(C)O)c2)no1` (racemic): the Ki in assay [1] (setting [4]) is 0.00127 µM. The results for the half-inhibitory concentration (IC50) in assay [2] and in assay [3] were above 20000 nM and 1800 nM, respectively.
Regarding `Cc1cc([C@](C)(O)C#Cc2cc3c(cc2F)C2CC(C2)n2c-3nc(C(N)=O)c2-c2cnn(CC(C)(C)O)c2)no1` (racemic), the Ki in assay [1] (setting [4]) is 0.00071 µM. For the same molecule, the IC50 in assay [2] was above 20000 nM; in assay [3] it was 1900 nM.
Consider `Cc1nc([C@](C)(O)C#Cc2ccc3c(c2)-c2nc(C(N)=O)sc2C2CC3C2)no1` [Example 450, (R)-9-(3-hydroxy-3-(5-methyl-1,2,4-oxa-diazol-3-yl)but-1-yn-1-yl)-5,6-dihydro-4H-4,6-methanobenzo[6,7]cyclo-hepta[1,2-d]thiazole-2-carboxamide], for which the half-inhibitory concentration (IC50) is above 20000 nM in assay [2] and 459 nM in assay [3].
Regarding `CN1CC[C@@](O)(C#Cc2ccc3c(c2)-n2nc(C(N)=O)cc2C2(CC2)CO3)C1=O` [Example 460], the concentration for half-maximal inhibition (IC50) in assay [2] is above 20000 nM; in assay [3], 252 nM.
